The values that follow come from ChEMBL document CHEMBL1150587, “Evaluation of the potential cancer chemotherapeutic efficacy of natural product isolates employing in vivo hollow fiber tests” (J Nat Prod, 2002).

In series [1] the test system is Mus musculus. Put plainly: Toxicity in tumor cell implanted NCr nu/nu mouse assessed as body weight change at 4.39 umol/kg, ip administered from day 3 to 6 after implantation measured on day 7. The class given is organism-based. The note with it: in vivo.
Series [2] concerns Mus musculus. The series is described as follows: Toxicity in tumor cell implanted NCr nu/nu mouse assessed as body weight change at 8.78 umol/kg, ip administered from day 3 to 6 after implantation measured on day 7. The format is organism-based. The note with it: in vivo.
For series [3], the system named is Mus musculus. Put plainly: Toxicity in tumor cell implanted NCr nu/nu mouse assessed as body weight change at 17.6 umol/kg, ip administered from day 3 to 6 after implantation measured on day 7. The class given is organism-based. The note with it: in vivo.
The subject of series [4] is Mus musculus. Put plainly: Toxicity in tumor cell implanted NCr nu/nu mouse assessed as body weight change at 35.1 umol/kg, ip administered from day 3 to 6 after implantation measured on day 7. As to conditions: in vivo. The class given is organism-based.
In series [5] the test system is Mus musculus. Put plainly: Toxicity in NCr nu/nu mouse subcutaneously implanted with human KB cells assessed as mortality at 4.39 umol/kg, ip administered on day 10, 13, 16, 20 of implantation. The format is organism-based. As to conditions: in vivo.
In series [6] the test system is Mus musculus. Put plainly: Toxicity in NCr nu/nu mouse subcutaneously implanted with human KB cells assessed as mortality at 8.78 umol/kg, ip administered on day 10, 13, 16, 20 of implantation. As to conditions: in vivo. The format is organism-based.
Series [7] has as its system Mus musculus. The series is described as follows: Toxicity in NCr nu/nu mouse subcutaneously implanted with human KB cells assessed as mortality at 17.6 umol/kg, ip administered on day 10, 13, 16, 20 of implantation. The class given is organism-based. As to conditions: in vivo.
In series [8] the test system is Mus musculus. Put plainly: Toxicity in NCr nu/nu mouse subcutaneously implanted with human KB cells assessed as change in body weight at 4.39 umol/kg, ip administered on day 10, 13, 16, 20 of implantation. The class given is organism-based. As to conditions: in vivo.
In series [9] the test system is Mus musculus. The series is described as follows: Toxicity in NCr nu/nu mouse subcutaneously implanted with human KB cells assessed as change in body weight at 8.78 umol/kg, ip administered on day 10, 13, 16, 20 of implantation. The format is organism-based. As to conditions: in vivo.
The test system of series [10] is Mus musculus. Put plainly: Toxicity in NCr nu/nu mouse subcutaneously implanted with human KB cells assessed as change in body weight at 17.6 umol/kg, ip administered on day 10, 13, 16, 20 of implantation. The class given is organism-based. The note with it: in vivo.
Series [11] relates to Mus musculus. Put plainly: Toxicity in NCr nu/nu mouse subcutaneously implanted with human KB cells assessed as change in body weight at 35.1 umol/kg, ip administered on day 10, 13, 16, 20 of implantation. The format is organism-based. As to conditions: in vivo.
For series [12], the system named is SW626. The series is described as follows: Growth inhibition of human SW626 cells implanted intraperitoneally to NCr nu/nu mouse at 4.39 to 35.1 umol/kg, ip administered from day 3 to 6 after implantation measured on day 7 by MTT-based hollow-fiber test. The format is functional.
The subject of series [13] is KB. The series is described as follows: Growth inhibition of human KB cells implanted subcutaneously to NCr nu/nu mouse at 4.39 to 35.1 umol/kg, ip administered from day 3 to 6 after implantation measured on day 7 by MTT-based hollow-fiber test. The class given is functional.
Series [14] can be described thus: Growth inhibition of human KBV1 cells implanted subcutaneously to NCr nu/nu mouse at 4.39 to 35.1 umol/kg, ip administered from day 3 to 6 after implantation measured on day 7 by MTT-based hollow-fiber test. The format is functional, KB-V1.
Series [15] has as its system SW626. The series is described as follows: Growth inhibition of human SW626 cells implanted subcutaneously to NCr nu/nu mouse at 4.39 to 35.1 umol/kg, ip administered from day 3 to 6 after implantation measured on day 7 by MTT-based hollow-fiber test. The format is functional.
The subject of series [16] is KB. Put plainly: Growth inhibition of human KB cells implanted subcutaneously to NCr nu/nu mouse assessed as tumor size at 4.39 to 28.5 umol/kg, ip administered on day 10, 13, 16, 20 of implantation. The format is functional, organism-based.
For the next series, the system named is SK-MEL-2. The series is described as follows: Cytotoxicity against human SK-MEL-2 cells after 72 hrs by SRB assay. The class given is functional, cell-based. As to conditions: SK-MEL-2, 72 h.
Another series relates to P388. The series is described as follows: Cytotoxicity against mouse P388 cells after 72 hrs by SRB assay. The format is functional, cell-based. The note with it: P388, 72 h.
In a further series the test system is LNCaP. The series is described as follows: Cytotoxicity against human LNCAP cells after 72 hrs by SRB assay. The class given is functional, cell-based. (In general: The SRB assay estimates cell density from bound dye.)
The next series concerns Lu1. Put plainly: Cytotoxicity against human Lu1 cells after 72 hrs by SRB assay. The format is functional, cell-based. The note with it: Lu1, 72 h.
A short description of series [17]: Cytotoxicity against human KBV1 cells after 72 hrs by SRB assay. The class given is functional, cell-based. As to conditions: KB-V1, 72 h.
The test system of series [18] is KB. The series is described as follows: Cytotoxicity against human KB cells after 72 hrs by SRB assay. The format is functional, cell-based.
The next series concerns Col2. The series is described as follows: Cytotoxicity against human Col2 cells after 72 hrs by SRB assay. As to conditions: Col2, 72 h. The class given is functional, cell-based.
The test system of series [19] is SW626. Put plainly: Cytotoxicity against human SW626 cells after 72 hrs by SRB assay. The class given is functional, cell-based. As to conditions: SW626, 72 h.
For series [20], the system named is KB. Put plainly: Growth inhibition of human KB cells implanted intraperitoneally to NCr nu/nu mouse at 4.39 to 35.1 umol/kg, ip administered from day 3 to 6 after implantation measured on day 7 by MTT-based hollow-fiber test. The class given is functional.
A short description of series [21]: Growth inhibition of human KBV1 cells implanted intraperitoneally to NCr nu/nu mouse at 4.39 to 35.1 umol/kg, ip administered from day 3 to 6 after implantation measured on day 7 by MTT-based hollow-fiber test. The format is functional, KB-V1.
For series [22], the system named is SW626. The series is described as follows: Growth inhibition of human SW626 cells implanted intraperitoneally to NCr nu/nu mouse at 128 to 512 umol/kg, ip administered from day 3 to 6 after implantation measured on day 7 by MTT-based hollow-fiber test. The format is functional.
Series [23] concerns SW626. The series is described as follows: Growth inhibition of human SW626 cells implanted subcutaneously to NCr nu/nu mouse at 128 to 512 umol/kg, ip administered from day 3 to 6 after implantation measured on day 7 by MTT-based hollow-fiber test. The format is functional.
Series [24] concerns Mus musculus. The series is described as follows: Toxicity in NCr nu/nu mouse subcutaneously implanted with human SW626 cells assessed as body weight change at 128 to 512 umol/kg, ip administered from day 3 to 6 after implantation measured on day 7. The format is organism-based. The note with it: in vivo.
Another series deals with MCF7. The series is described as follows: Cytotoxicity against human MCF7 cells after 72 hrs by SRB assay. The note with it: MCF7, 72 h.
The nature of series [25]: Cytotoxicity against human BC1 cells after 72 hrs by SRB assay. As to conditions: BC1, 72 h.

Activity calls are given as the source filed them. No cut-off for these calls is given here. A value given as a limit tells only on which side of the number the result lay.

The term IC50 denotes the concentration that inhibits the measured activity by half. Lower therefore signals inhibition by little substance. Regarding `CC(=O)O[C@H]1C(=O)[C@@]2(C)[C@H]([C@H](OC(=O)c3ccccc3)[C@]3(O)C[C@H](OC(=O)[C@H](O)[C@@H](NC(=O)c4ccccc4)c4ccccc4)C(C)=C1C3(C)C)[C@]1(OC(C)=O)CO[C@@H]1C[C@@H]2O` [PACLITAXEL], the Activity in the series on Mus musculus [1] is 1.7 g; in the series on Mus musculus [2], 1.4 g; with Mus musculus [3], 1.8 g; in the series on Mus musculus [4], 1.1 g; with Mus musculus [5] it was “Non-toxic”; with Mus musculus [6], “Non-toxic”. For the same compound, the Activity entry was “Non-toxic” in the series on Mus musculus [7]; 9.4% in the series on Mus musculus [8]; 6.7% in the series on Mus musculus [9]; 8.2% in the series on Mus musculus [10]; 7.8% in the series on Mus musculus [11]. The “inhibition (INH)” value in the series with SW626 [12] turned out to be 98.7%; with KB [13] it was 19.5%; in series [14], 13.1%; in the series on SW626 [15], 0%; in the series on KB [20], 70.2%; in [21] it was 0%. In addition, in the series with KB [16], the result was inactive. In addition, the IC50 with SK-MEL-2 is 0.07 µM; in the series on P388 it was 0.02 µM; with LNCaP, 0.02 µM; with Lu1 it was 0.01 µM; in series [17], > 2.3 µM; in the series with KB [18], 0.02 µM. Also, the IC50 was found to be 0.02 µM in the series on Col2 and 1e-05 µM in the series on SW626 [19].

With `CC1(C)CCC2=C(O1)C(=O)c1ccccc1C2=O` [ALPHA-LAPACHONE], the “inhibition (INH)” value is listed as 0% in the series with SW626 [22] and 10.3% in the series with SW626 [23]. Moreover, in the series with Mus musculus [24], the Activity is listed as 0.3 g. The IC50 in the series on SK-MEL-2 was found to be 7.9 µM; in the series with P388, 0.8 µM; with MCF7, 38 µM; in the series on LNCaP it was 29.3 µM; with Lu1 it was 21.9 µM; in series [17], 34.3 µM. Also, the IC50 worked out at 53.7 µM in the series with KB [18], 40.9 µM in the series on Col2, 27.7 µM in [25] and 12.4 µM in the series with SW626 [19].
